Structures can show the parent of a compound that is named as a salt.
Compound | melting point
CCOc1ccc(-c2cc(N3CCC(C(=O)NCc4ccccn4)CC3)c3sccc3n2)cc1.Cl | 178 to 180 °C (dec.)
CCCNC(=O)C1CCN(c2cc(-c3ccc(F)cc3)nc3ccsc23)CC1.Cl | 207 to 209 °C (dec.)
CCNC(=O)C1CCN(c2cc(-c3ccccc3)nc3cccnc23)CC1.Cl | > 210 °C (dec.)
NC(=O)C1CCN(c2cc(-c3ccccc3F)nc3ccsc23)CC1 | 194 to 195 °C
CCNC(=O)N1CCN(c2cc(-c3ccc(F)cc3)nc3ccsc23)CC1.Cl | > 147 °C (dec.)
CCCCNC(=O)C1CCN(c2cc(-c3ccccc3)nc3ccsc23)CC1.Cl | 170 to 172 °C (dec.)
CN(C)CCNC(=O)C1CCN(c2cc(-c3ccccc3)nc3ccsc23)CC1.Cl | > 150 °C (dec.)
CCNCCNC(=O)C1CCN(c2cc(-c3ccccc3)nc3ccsc23)CC1.Cl | > 95 °C (dec.)
COc1cccc(-c2cc(N3CCN(C(=O)c4ccc(F)cc4)CC3)c3sccc3n2)c1 (as salt: hydrochloride) | > 174 °C (dec.)
Cl.O=C(NCCCCl)N1CCN(c2cc(-c3ccc(F)cc3)nc3ccsc23)CC1 | 235 to 238 °C (dec.)
Cl.O=C(NCc1ccc(F)cc1)C1CCN(c2cc(-c3ccccc3)nc3ccsc23)CC1 | 190 to 192 °C (dec.)
CC(C)(C)NC(=O)C1CCN(c2cc(-c3ccccc3)nc3ccsc23)CC1.Cl | 270 to 272 °C (dec.)
Cl.O=C(NC1CC1)C1CCN(c2cc(-c3ccccc3)nc3ccsc23)CC1 | 199 to 201 °C (dec.)
COC(=O)C1CCN(c2cc(-c3ccccc3)nc3sccc23)CC1.Cl | > 220 °C (dec.)
CCNC(=O)N1CCN(c2cc(-c3ccccc3)nc3ccsc23)CC1.Cl | > 240 °C (dec.)
NC(=O)C1CCN(c2cc(-c3ccc(F)cc3)nc3ccsc23)CC1 | 251 to 253 °C
CCNC(=O)C1CCN(c2cc(-c3ccc(F)cc3)nc3ccsc23)CC1.Cl | 220 to 222 °C (dec.)
COc1cccc(-c2cc(N3CCC(C(N)=O)CC3)c3sccc3n2)c1.Cl | 133 to 135 °C (dec.)
Cl.O=C(NCc1cccs1)C1CCN(c2cc(-c3ccccc3)nc3ccsc23)CC1 | > 230 °C (dec.)
Cl.O=C(NCc1cccc(F)c1)C1CCN(c2cc(-c3ccccc3)nc3ccsc23)CC1 | 236 to 238 °C (dec.)
Cl.NCCNC(=O)C1CCN(c2cc(-c3ccc(F)cc3)nc3ccsc23)CC1 | 115 to 118 °C (dec.)
O=C(NCC1CCCO1)C1CCN(c2cc(-c3ccccc3)nc3ccsc23)CC1 (centres unmarked) (as salt: hydrochloride) | > 210 °C (dec.)

Compound | melting point
CN(C)CCNC(=O)C1CCN(c2cc(-c3ccc(F)cc3)nc3ccsc23)CC1.Cl | 180 to 182 °C (dec.)
Cc1ccc(CNC(=O)C2CCN(c3cc(-c4ccccc4)nc4ccsc34)CC2)cc1.Cl | 177 to 178 °C (dec.)
Cl.NCCNC(=O)C1CCN(c2cc(-c3ccccc3)nc3ccsc23)CC1 | 176 to 178 °C (dec.)
Cl.O=C(NCCO)C1CCN(c2cc(-c3ccc(F)cc3)nc3ccsc23)CC1 | 198 to 200 °C (dec.)
CCCNC(=O)C1CCN(c2cc(-c3ccccc3)nc3ccsc23)CC1.Cl | 159 to 160 °C (dec.)
CCNC(=O)N1CCN(c2cc(-c3cccc(OC)c3)nc3ccsc23)CC1.Cl | > 198 °C
CNC(=O)N1CCN(c2cc(-c3ccccc3)nc3ccsc23)CC1.Cl | 185 to 190 °C
NC(=O)C1CCN(c2cc(-c3ccc(F)cc3)nc3ccsc23)CC1 (as salt: hydrochloride) | > 303 °C (dec.)
c1ccc(-c2cc(N3CCOCC3)c3sccc3n2)cc1 (as salt: hydrochloride) | 195 to 198 °C
CCNC(=O)C1CCN(c2cc(-c3cccc(OC)c3)nc3ccsc23)CC1.Cl | > 230 °C (dec.)
Cl.NC(=O)C1CCN(c2cc(-c3ccccc3)nc3ccsc23)CC1 | 303 to 305 °C (dec.)
CCOc1ccc(-c2cc(N3CCC(C(N)=O)CC3)c3sccc3n2)cc1.Cl | 211 to 213 °C (dec.)
CNC(=O)C1CCN(c2cc(-c3ccccc3)nc3ccsc23)CC1.Cl | > 260 °C (dec.)
COC(C)CNC(=O)C1CCN(c2cc(-c3ccc(F)cc3)nc3ccsc23)CC1 (centres unmarked) (as salt: hydrochloride) | 179 to 180 °C (dec.)
COc1cccc(-c2cc(N3CCN(C(=O)c4ccncc4)CC3)c3sccc3n2)c1 (as salt: hydrochloride) | 215 to 217 °C
O=C(NCc1ccncc1)C1CCN(c2cc(-c3ccccc3)nc3ccsc23)CC1 (as salt: hydrochloride) | 176 to 178 °C (dec.)
O=C(NC1CCCC1)C1CCN(c2cc(-c3ccccc3)nc3ccsc23)CC1 (as salt: hydrochloride) | 179 to 181 °C (dec.)
CCNC(=O)C1CCN(c2cc(-c3ccncc3)nc3ccsc23)CC1.Cl | > 227 °C (dec.)
COCCNC(=O)C1CCN(c2cc(-c3ccccc3)nc3ccsc23)CC1 (as salt: hydrochloride) | 157 to 160 °C (dec.)
Cl.O=C(NCCO)C1CCN(c2cc(-c3ccccc3)nc3ccsc23)CC1 | > 220 °C (dec.)
COCCCNC(=O)C1CCN(c2cc(-c3ccccc3)nc3ccsc23)CC1.Cl | 147 to 149 °C (dec.)
Cl.O=C(NCc1ccccc1)C1CCN(c2cc(-c3ccccc3)nc3ccsc23)CC1 | 163 to 165 °C (dec.)
